In test [1] the target is Mu-type opioid receptor (Rattus norvegicus, UniProt P33535). Nature of the test: (§1) Binding Assay: Binding assay of opioid receptor.
Test [2] concerns the target Delta-type opioid receptor (Rattus norvegicus, UniProt P33533). The test is described as §1.

From ChEMBL document CHEMBL3639083, “6,7-unsaturated-7-carbamoyl substituted morphinan derivative” (2013) come the findings set out here.

Sequence of Delta-type opioid receptor (P33533 whole entry): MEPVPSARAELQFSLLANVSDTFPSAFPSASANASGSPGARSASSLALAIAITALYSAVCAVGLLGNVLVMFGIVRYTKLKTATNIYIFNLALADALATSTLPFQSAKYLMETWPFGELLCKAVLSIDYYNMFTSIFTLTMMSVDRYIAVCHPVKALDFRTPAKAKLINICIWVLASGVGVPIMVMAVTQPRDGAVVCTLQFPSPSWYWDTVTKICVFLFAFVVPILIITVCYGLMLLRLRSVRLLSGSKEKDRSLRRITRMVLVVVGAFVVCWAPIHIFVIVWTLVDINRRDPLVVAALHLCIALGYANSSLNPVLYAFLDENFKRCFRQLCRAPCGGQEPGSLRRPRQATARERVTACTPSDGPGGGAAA
Sequence of Mu-type opioid receptor (P33535 whole entry): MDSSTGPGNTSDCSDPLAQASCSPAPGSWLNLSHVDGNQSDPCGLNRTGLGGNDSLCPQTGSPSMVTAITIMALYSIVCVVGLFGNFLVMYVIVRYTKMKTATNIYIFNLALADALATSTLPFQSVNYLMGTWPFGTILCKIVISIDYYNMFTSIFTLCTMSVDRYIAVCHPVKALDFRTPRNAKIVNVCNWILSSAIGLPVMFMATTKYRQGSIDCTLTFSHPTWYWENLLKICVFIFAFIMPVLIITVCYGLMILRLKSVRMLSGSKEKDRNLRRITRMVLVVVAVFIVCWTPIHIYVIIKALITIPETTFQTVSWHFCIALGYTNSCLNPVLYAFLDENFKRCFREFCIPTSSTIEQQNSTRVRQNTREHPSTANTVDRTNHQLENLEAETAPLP

As a reminder, the Ki is a dissociation constant, usually derived from enzyme kinetics or from competition with a known ligand. Lower therefore signals a stronger hold on the target. Turning to `COc1ccc(NC(=O)C2=C(O)[C@@H]3Oc4c(O)ccc5c4[C@@]34CCN(CC3CC3)[C@H](C5)[C@]4(O)C2)cn1`, the Ki in test [1] worked out at 2.29 nM; in test [2], 27.6 nM.
The matching figures for `CC(C)NC(=O)C1=C(NS(=O)(=O)c2ccc(Cl)cc2)[C@@H]2Oc3c(O)ccc4c3[C@@]23CCN(CC2CC2)[C@H](C4)[C@]3(O)C1`: 11 nM and 0.56 nM.
